According to PubChem BioAssay AID222 (DTP/NCI, 2004):
“And” between values parts separate entries of the source, which are not always exact repeats. Identical values can stand only once. Inconclusive results and toxic doses are left out.

Tested on: C57BL/6 mice, intracerebral ependymoblastoma, median survival T/C
Test: NCI In Vivo Anticancer Drug Screen. Data for tumor model Ependymoblastoma (intracerebral) in C57BL/6 mice
Conditions: endpoint: median survival time, higher = longer survival
Description: The antitumor activity of compounds was measured in mice bearing transplantable tumors. Survival or tumor size were measured and the results are expressed as the measurement made in the treated group (T) divided by the measurement made in the vehicle treated control group (C). The tumor model used in this assay is Ependymoblastoma (intracerebral) in C57BL/6 mice

With O=NN(CCCl)C(=O)NCCCl the T/C (dose: 0.12 mg/kg/injection, schedule: Q03HX032 (ip), vehicle: saline) was 113 % of control and 291 % of control, the T/C (dose: 0.25 mg/kg/injection, schedule: Q03HX032 (ip), vehicle: saline) was 291 % of control and the T/C (dose: 0.5 mg/kg/injection, schedule: Q03HX008 (ip), vehicle: saline) was 110 % of control. For the same compound, the T/C (dose: 0.5 mg/kg/injection, schedule: Q03HX032 (ip), vehicle: saline) was 169 % of control, the T/C (dose: 1.0 mg/kg/injection, schedule: Q01DX005 (ip), vehicle: saline + alcohol) was 109 % of control and the T/C (dose: 2.0 mg/kg/injection, schedule: Q01DX001 (ip), vehicle: Klucel (hydroxypropylcellulose) (HPC)) was 95 % of control and 100 % of control and 111 % of control. For the same compound, the T/C (dose: 2.0 mg/kg/injection, schedule: Q01DX005 (ip), vehicle: saline with Tween-80) was 113 % of control, the T/C (dose: 2.0 mg/kg/injection, schedule: Q03HX008 (ip), vehicle: saline) was 103 % of control and 251 % of control and the T/C (dose: 2.0 mg/kg/injection, schedule: Q03HX032 (ip), vehicle: saline) was 151 % of control and 179 % of control. The T/C (dose: 4.0 mg/kg/injection, schedule: Q01DX001 (ip), vehicle: Klucel (hydroxypropylcellulose) (HPC)) was 101 % of control and 106 % of control and 120 % of control, the T/C (dose: 4.0 mg/kg/injection, schedule: Q01DX001 (oral), vehicle: saline with Tween-80) was 97 % of control and 108 % of control and the T/C (dose: 4.0 mg/kg/injection, schedule: Q01DX005 (ip), vehicle: alcohol) was 106 % of control. For the same compound, the T/C (dose: 4.0 mg/kg/injection, schedule: Q03HX008 (ip), vehicle: saline) was 178 % of control and 327 % of control, the T/C (dose: 4.0 mg/kg/injection, schedule: Q## X006 (ip), vehicle: saline with Tween-80) was 159 % of control and the T/C (dose: 8.0 mg/kg/injection, schedule: Q01DX001 (ip), vehicle: Klucel (hydroxypropylcellulose) (HPC)) was 115 % of control. The T/C (dose: 8.0 mg/kg/injection, schedule: Q01DX001 (oral), vehicle: saline with Tween-80) was 95 % of control and 102 % of control and 122 % of control, the T/C (dose: 8.0 mg/kg/injection, schedule: Q01DX005 (ip), vehicle: saline + alcohol) was 361 % of control and the T/C (dose: 8.0 mg/kg/injection, schedule: Q03HX008 (ip), vehicle: saline) was 96 % of control and 98 % of control. The T/C (dose: 8.0 mg/kg/injection, schedule: Q## X006 (ip), vehicle: saline with Tween-80) was 219 % of control, the T/C (dose: 10.0 mg/kg/injection, schedule: Q01DX001 (ip), vehicle: other) was 124 % of control and the T/C (dose: 15.0 mg/kg/injection, schedule: Q01DX001 (ip), vehicle: saline with Tween-80) was 176 % of control. The T/C (dose: 16.0 mg/kg/injection, schedule: Q01DX001 (ip), vehicle: Klucel (hydroxypropylcellulose) (HPC)) was 150 % of control and 228 % of control, the T/C (dose: 16.0 mg/kg/injection, schedule: Q01DX001 (ip), vehicle: other) was 124 % of control and the T/C (dose: 16.0 mg/kg/injection, schedule: Q01DX001 (oral), vehicle: saline with Tween-80) was 158 % of control. For the same compound, the T/C (dose: 16.0 mg/kg/injection, schedule: Q01DX005 (ip), vehicle: saline + alcohol) was 96 % of control, the T/C (dose: 16.0 mg/kg/injection, schedule: Q08DX002 (ip), vehicle: saline) was 207 % of control and 291 % of control and the T/C (dose: 20.0 mg/kg/injection, schedule: Q01DX001 (ip), vehicle: other) was 164 % of control. For the same compound, the T/C (dose: 20.0 mg/kg/injection, schedule: Q01DX001 (oral), vehicle: saline with Tween-80) was 195 % of control, the T/C (dose: 30.0 mg/kg/injection, schedule: Q01DX001 (ip), vehicle: saline with Tween-80) was 212 % of control and the T/C (dose: 32.0 mg/kg/injection, schedule: Q01DX001 (ip), vehicle: Klucel (hydroxypropylcellulose) (HPC)) was 101 % of control and 217 % of control and 231 % of control. The T/C (dose: 32.0 mg/kg/injection, schedule: Q01DX001 (ip), vehicle: other) was 219 % of control, the T/C (dose: 32.0 mg/kg/injection, schedule: Q01DX001 (oral), vehicle: saline with Tween-80) was 108 % of control and the T/C (dose: 32.0 mg/kg/injection, schedule: Q04DX004 (ip), vehicle: saline) was 111 % of control. For the same compound, the T/C (dose: 40.0 mg/kg/injection, schedule: Q01DX001 (ip), vehicle: other) was 196 % of control, the T/C (dose: 64.0 mg/kg/injection, schedule: Q01DX001 (ip), vehicle: saline with Tween-80) was 94 % of control and the T/C (dose: 64.0 mg/kg/injection, schedule: Q01DX001 (oral), vehicle: saline with Tween-80) was 94 % of control. The T/C (dose: 64.0 mg/kg/injection, schedule: Q04DX004 (ip), vehicle: saline) was 100 % of control, the T/C (dose: 64.0 mg/kg/injection, schedule: Q08DX002 (ip), vehicle: saline) was 97 % of control and the T/C (dose: 128.0 mg/kg/injection, schedule: Q01DX001 (ip), vehicle: saline with Tween-80) was 97 % of control. The T/C (dose: 128.0 mg/kg/injection, schedule: Q01DX001 (oral), vehicle: saline with Tween-80) was 92 % of control, the T/C (dose: 256.0 mg/kg/injection, schedule: Q01DX001 (ip), vehicle: saline with Tween-80) was 88 % of control and the T/C (dose: 256.0 mg/kg/injection, schedule: Q01DX001 (oral), vehicle: saline with Tween-80) was 88 % of control.
